Source: patent US20260083697A1, “COMPOSITION AND USE OF SAME FOR CONTROLLING INFECTIONS IN AQUATIC ORGANISMS” (priority 2022, published 2026)

Tests used:
[1] = tested on: fish; assay: Toxicity of commercial fatty acid ethyl esters to fish over 48 h; type: in vivo; conditions: at least 48 h
[2] = tested on: Gyrodactylus turnbulli; type: cell-based; conditions: for antiparasitic activity of pure commercial ethyl ester: commercial ethyl ester form, Kolliphor and sonication
From the text: FIGS. 2A-2C include graphs showing antiparasitic effect of residue extract and preparations (FFA & FAEE) with and without the addition of the food-grade detergent Kolliphor (K) and sonication(S) prior to analysis. […] Gyrodactylus turnbulli was exposed to the following preparations: (2A) residue extract (RE) and RE with Kolliphor and sonication (RE-K-S); (2B) FFA and FFA with Kolliphor and sonication (FFA-K-S); and (2C) FAEE with Kolliphor and sonication (FAEE-K-S). The numbers represent the tested concentrations of the solution applied at μL mL^−1. n=3 wells with at least five observed parasites per well.
FIG. 5 includes a vertical bar graph showing dose-dependent antiparasitic effect of fatty acids in their ethyl ester form as tested in situ. Selected were the four FAs that appeared at the highest level in the residue and its extracts and preparations, as pure commercial compounds: myristic acid (14:0), palmitic acid (16:0), palmitoleic acid (16:1n7), and EPA (20:5n3). The analysis was carried out with the addition of Kolliphor (K) and sonication (S). Time to reach 50% parasite mortality was recorded.
FIG. 11A-11B include graphs showing in-situ antiparasitic effect against Gyrodactylus by commercial FAEEs. Gyrodactylus was exposed by commercial FAEEs at 18.75, 37.5, and 75 μM along with addition of 1% Kolliphor (K) and sonication(S).
An in-situ assay was carried out, as described previously (Kim et al., 2021). Briefly, infected guppies (as confirmed by observation under a stereomicroscope (Richards and Chubb 1996)) were anesthetized with 250 ppm of Sedanol (Stockton-Aquamor Ltd., Israel) (Zorin et al., 2019) followed by euthanasia (brain pithing). Tail fin clips with more than four parasites were excised and transferred, using watchmaker's forceps, to a single well of a 24-well plate containing standardized water (STW: dechlorinated tap water with Na2S2O3 at 0.37 mg L^−1 followed by autoclaving). Ethanol and STW, as well as the relevant solvents and preparation protocol used for extraction, were used as negative controls in each trial. Parasites were observed under an inverted microscope (Axiovert 40 CFL, Carl Zeiss AG) for 4 h, at intervals ranging from 5 to 30 min, during which detached and dead parasites were recorded. A total of 12-15 parasites (with three replicates) were analyzed for each treatment concentration.
Residue extract and preparations were tested at the following concentrations: residue extract at 2.5, 5 and 10 μL mL^−1, and FFA and FAEE at 2.5 and 5 μL mL^−1 (in ethanol). Selected pure active compounds were analyzed, based on the analysis of the FAEE composition. These included the ethyl esters of the following fatty acids: myristic acid (14:0), palmitic acid (16:0), palmitoleic acid (16:1n7), and EPA ([…]) (obtained from Nu-Check, USA). Tested concentrations were calculated based on the amount of active compound in the FA profile of ethyl esters according to the GC-results.

| Compound | toxicity to fish ([1]; 7.3 μM to 14.5 μM) | antiparasitic activity of pure commercial ethyl ester [2] | also measured |
| --- | --- | --- | --- |
| CCCCCCCCC(=O)OCC [9:0, ethyl nonanoate] | – | – | toxicity to fish ([1]; 18.75 μM to 37.5 μM): non-toxic |
| CCCCCCCCCCCCCCCC(=O)OCC [16:0, ethyl palmitate] | non-toxic | activity | – |
| CCCCCCCCCCCCCC(=O)OCC [14:0, ethyl myristate] | non-toxic | activity | – |
| CC/C=C\C/C=C\C/C=C\CCCCCCCC(=O)OCC [18:3n3, ethyl alpha linolenate] | non-toxic | – | – |
| CC/C=C\C/C=C\C/C=C\C/C=C\C/C=C\CCCC(=O)OCC [20:5n3] | non-toxic | activity | effect on the parasite at low concentrations ([2]; 3 and 6 μL mL^−1): inducing parasite mortality; dose dependence of antiparasitic effect ([2]; 3 to 24 μL mL^−1): dose-dependent effect; relative activity (time to 50% parasite mortality) ([2]; 12 and 24 μL mL^−1, compared with the other three FAEEs): most active |
| CCCCC/C=C\C/C=C\C/C=C\CCCCC(=O)OCC [18:3n6, ethyl gamma linolenate] | non-toxic | – | – |
| CCCCC/C=C\C/C=C\CCCCCCCC(=O)OCC [18:2n6, ethyl linoleate] | non-toxic | – | – |
| CCCCCCCCCCCC(=O)OCC [12:0, ethyl laurate] | – | – | toxicity to fish ([1]; 9.375 μM to 37.5 M): non-toxic |
| CCCCCCCCCC(=O)OCC [10:0, ethyl decanoate] | – | – | toxicity to fish ([1]; 18.75 μM to 37.5 μM): non-toxic |
